Paper PMC10704561, “Multi-Photon-Sensitive Chromophore for the Photorelease of Biologically Active Phenols” (ACS Chemical Neuroscience, 2023)
Where two headings read alike, the source gives them in different places.

Key:
[1] = UV-vis spectra and molar extinction coefficient in KMOPS buffer; assay type: physicochemical; conditions: 0.1 mM in KMOPS buffer, pH 7.2 (3d, 6c: 10 or 20% CH3CN added)
Experimental: A 100 μM solution of each protected phenol was prepared in KMOPS buffer (20% CH3CN was used as a cosolvent for compounds 3d and 6c). The UV–vis spectra of these solutions were recorded at between 250 and 500 nm. All of the measurements were repeated in triplicate, and the absorbance values were averaged. The Beer–Lambert law, ε = A(cl)^−1, was used for the calculation of ε values at λ = 365 nm, where A is the absorbance value measured at 365 nm, c is the concentration of the sample, and l is the cuvette length (1 cm). See the Supporting Information for the spectra.

[2] = One-photon excitation (1PE) photolysis with 365 nm LED, HPLC quantification; assay type: physicochemical; conditions: for t90% (time required to consume 90% of the starting material): 1PE 365 nm LED, lamp intensity differs per compound (Table S1)
Experimental: A 0.1 mM solution (3 mL) of each protected phenol in KMOPS buffer (10 or 20% CH3CN was used as a cosolvent for 3d and 6c) was placed in a 3 mL quartz cuvette along with a stirring bar. The solution was irradiated with stirring using a 365 nm LED lamp (Cairn OptoLED Lite). At different time intervals, 80 μL aliquots of the solution were taken out and analyzed by uHPLC (Agilent 1290 Infinity series), monitoring the AUC at 320 nm (Supporting Information, HPLC Data). An external standard calibration method of quantification was used for the calibration of the samples. The experiments were repeated in sets of three. A gradient elution with a flux rate of 0.3 mL/min using a mobile phase comprising A = 0.1% trifluoroacetic acid in water and B = acetonitrile (starting from 5% B to 100% over 10 min and re-equilibrating to 5% B before the next run) was used for the separations. A comparison of the AUC with the calibration curves of the substrates (obtained from known concentration) determined the percentages of the remaining starting materials. The percentages of the remaining starting materials were plotted versus time. The time to 90% of decomposition of the substrate (t90% values) was obtained by fitting a single exponential decay curve to the data using DeltaGraph (Red Rock Software). The following equation was used to calculate the quantum yield (Φu) of each photolysis reaction:[42],[47],[56],[57] Φu = (I σ t90%)^−1, where I is the irradiation intensity (determined by potassium ferrioxalate actinometry and measured in Einstein cm^–2 s^–1),[58] σ is the decadic extinction coefficient (1000 × ε) at 365 nm, and t90% is the time required to consume 90% of the starting material. See Supporting Information Table S1 for the I, σ, and t90% data.

[3] = Spontaneous hydrolysis in the dark; assay type: physicochemical; conditions: 0.1 mM in KMOPS pH 7.2, dark, 7 days
Experimental: A 0.1 mM solution of each compound was prepared in KMOPS buffer. For compounds 3d and 6c, 20% CH3CN was used as a cosolvent. The solutions were kept in the dark for 7 days, and the percentage of the starting materials was determined by periodic HPLC analysis (Supporting Information, HPLC Data).

[4] = Solubility in KMOPS buffer pH 7.2; assay type: physicochemical; conditions: aqueous buffer; KMOPS buffer, pH 7.2; read-out: solubility
Text: The photochemical and photophysical properties were investigated in a simulated physiological buffer (KMOPS, pH 7.2) and compared with the literature data for CyHQ-O-DA (Table 1). […] For this derivative, 10% CH3CN in the buffer was used to ensure complete solubilization for the photochemistry experiments. The spontaneous hydrolysis in the dark was monitored over a period of 7 days and no significant hydrolysis was detected for any of the constructs. The molar absorptivity at the wavelength used for 1PE photolysis (ε365) ranged between 4800 and 5670 M^–1 cm^–1, in line with the values of most CyHQ-based PPGs.
The photochemical behavior of constructs 4–7c was investigated in KMOPS buffer at the concentration of 0.1 mM. Under these conditions, all compounds were soluble except for the VNA analogue 6c, which, because of the lipophilicity of the vanilloid, required 20% CH3CN for full solubilization. The stability toward hydrolysis in the dark was monitored over a week, and no significant decomposition was detected for any probe. All constructs were successfully photolyzed after light exposure, as shown in the time courses of the photolysis reactions (Figure 3). MeO-CyHQ constructs 4c, 6c, and 7c were photoactivated with excellent quantum efficiency and sensitivities, and good chemical yields were obtained by monitoring the appearance of the released bioeffector over the time course of the photoreaction (Table 1). […] We believe this effect is due to the presence of the thiophene ring, a well-known photoactive group,[51] which could act as an energy sink in the excited state and quench the photochemical reaction.

dLight 1.2 = assay: Activation of dLight 1.2 on HCT 116 cells by photoreleased dopamine; assay type: cell-based; conditions: for dLight 1.2 response after photoactivation (1PE): 10 μM
Experimental: (§1) HCT 116 cells were grown in Dulbecco’s […] medium (DMEM) supplemented with 10% fetal bovine serum (FBS), 1% nonessential amino acids (NEAA), and maintained at 37 °C and 5% CO2. HEK 293 cells stably expressing TRPV1 channels were grown as previously described.[62]
(§2) An Olympus FluoView FV1000MPE confocal microscope was employed to image and record cells plated onto 35 mm glass-bottom 4-well plates. A 488 nm ion laser excited the dopamine and serotonin sensors dLight 1.2 and GRAB5-HT, respectively, and Fluo-4 calcium dye. FluoView 10-ASW version 4.0 (Olympus), ImageJ-Fiji, and DeltaGraph (Red Rock Software) were used for capturing, extracting, and processing the collected data. Photoactivation was conducted with 405 nm (100% laser power, 1PE) or 720 nm (10% laser power, 24 mW, 2PE) light for MeO-CyHQ-O-DA and MeO-CyHQ-O-5HT or 740 nm (20% laser power, 15 mW light) for MeO-CyHQ-O-VNA and MeO-CyHQ-O-EG. Images were captured by using a 60× immersion lens.
(§3) HCT 116 cells were grown to 70% confluency on specialized glass-bottom plates for imaging. After 24 h, the cells were transfected (70% efficiency) with either dLight 1.2 or GRAB5-HT. Before imaging, the DMEM was discarded and the cells were washed twice with HBSS. HBSS (500 μL) was added per well for imaging. DMSO was used to dissolve the compounds CyHQ-O-DA, MeO-CyHQ-O-DA, and MeO-CyHQ-O-5HT to make 1 mM stock solutions. These were then added to the wells to obtain the desired final concentrations, keeping the DMSO concentration to less than 1%, which is tolerated by the cells. Control experiments included optimization of the response of the dLight 1.2 and GRAB5-HT sensors to the release of dopamine and serotonin, respectively, through exposure to different concentrations of CyHQ-O-DA, MeO-CyHQ-O-DA, and MeO-CyHQ-O-5HT at different durations of 405 nm light. Optimizations were conducted in a similar manner for activation through 2PE. Light dose–response curves were generated by applying a 405 nm light pulse for 1, 10, 50, 100, 200, 300, 400, 500, 600, 750, and 1000 ms at 50 frame intervals for CyHQ-O-DA, MeO-CyHQ-O-DA, and MeO-CyHQ-O-5HT.

GRAB5-HT = assay: Activation of GRAB5-HT on HCT 116 cells by photoreleased serotonin; assay type: cell-based
Experimental: as §1, §2
as §3, with “Light dose–response curves were generated by applying a 405 nm light pulse for 1, 10, 50, 100, 200, 300, 400, 500, 600, 750, and 1000 ms at 50 frame intervals for CyHQ-O-DA, MeO-CyHQ-O-DA, and MeO-CyHQ-O-5HT.” left out

[5] = design: method as in PMID 32077679; conditions: KMOPS buffer, pH 7.2; cited from earlier work
[6] = design: method as in PMID 32077679; conditions: cited from earlier work
[7] = design: method as in PMID 32077679; conditions: KMOPS buffer, pH 7.2; cited from earlier work; remark: listed apart in the source

COc1cc(COc2ccc(CCN)cc2O)nc2c(C#N)c(O)ccc12.O=C(O)C(F)(F)F [3c, 2-(4-((8-Cyano-7-hydroxy-4-methoxyquinolin-2-yl)methoxy)-3-hydroxyphenyl)ethan-1-aminium 2,2,2-trifluoroacetate]
ε365 [1]: 5670 M^–1 cm^–1
λmax [1]: 354 nm
t90% (time required to consume 90% of the starting material) [2]: 25.4 s
irradiation time to complete the 1PE photolysis reaction ([2]; 365 nm): less than 1 min
τd (time constant of spontaneous hydrolysis in buffer in the dark at room temperature) [3]: nh (No hydrolysis (<5% detected after 7 days))
solubility [4]: > 100 µM
dLight 1.2 response after photoactivation (1PE) (dLight 1.2; 10 ms flash of 405 nm light): robust response
dLight 1.2 response after photoactivation (2PE) (dLight 1.2; 100 μM, 200 ms flash of 720 nm light): activated dLight 1.2

COc1cc(COc2ccc3[nH]cc(CCN)c3c2)nc2c(C#N)c(O)ccc12.O=C(O)C(F)(F)F [4c, 2-(5-((8-Cyano-7-hydroxy-4-methoxyquinolin-2-yl)methoxy)-1H-indol-3-yl)ethan-1-aminium 2,2,2-trifluoroacetate]
ε365 [1]: 5400 M^–1 cm^–1
λmax [1]: 355 nm
t90% (time required to consume 90% of the starting material) [2]: 18.4 s
τd (time constant of spontaneous hydrolysis in buffer in the dark at room temperature) [3]: nh (No hydrolysis (<5% detected after 7 days))
solubility [4]: > 100 µM
GRAB5-HT response after photoactivation (1PE) (GRAB5-HT; 20 μM, 20 ms burst of 405 nm light): robust response
GRAB5-HT response after photoactivation (2PE) (GRAB5-HT; 200 μM, 200 ms pulse of 720 nm light): robust response
light pulse duration at which the GRAB5-HT response plateaus (GRAB5-HT; 405 nm (1PE), 20 μM): around 200 ms

N#Cc1c(O)ccc2ccc(COc3cc(CCN)ccc3O)nc12 [CyHQ-O-DA]
dLight 1.2 response after photoactivation (1PE) (dLight 1.2; 405 nm light pulse): increase in fluorescence output
ε365 [5]: 5300 M^–1 cm^–1
λmax [5]: 365 nm
τd (time constant of spontaneous hydrolysis in buffer in the dark at room temperature) [6]: nh ^g (No hydrolysis (<5% detected after 7 days))
solubility [7]: >100 µM

NCCc1ccc(O)c(O)c1 [dopamine, reference compound]
dLight 1.2 response to bulk addition (dLight 1.2; 100 μM, no photoactivation): increase in fluorescence output
